Data reported in PubChem BioAssay AID1996.
In brackets after ≈: the same amount, converted by molar mass.

Conditions: buffer; pH 7.4; 200.0 µM

**Q.** With Cc1cccc(C(=O)OCC(=O)N2CCCC2=O)c1[N+](=O)[O-] as the compound, how does the solubility kinetic read?
**A.** > 45.9 µg/mL

**Q.** For Cc1cccnc1Oc1ncccc1N, which solubility kinetic is on record?
**A.** > 30.2 µg/mL

**Q.** For COc1nc(C)cc(C)c1S(=O)(=O)c1ccccc1, which solubility kinetic is on record?
**A.** 41.3 µg/mL (≈ 149 µM)

**Q.** Which solubility kinetic does the source give for CC(=O)c1ccc(NC(=O)CN2CCCCCC2)cc1 here?
**A.** > 41.2 µg/mL

**Q.** For CC(C)(C)NC(=O)CN(C(=O)C(=O)Nc1ccc2c(c1)OCCO2)C1CC1, which solubility kinetic is on record?
**A.** > 56.3 µg/mL

**Q.** With O=C(CNC(=O)c1ccccc1)NCc1ccc(Cl)cc1 as the compound, how does the solubility kinetic read?
**A.** 10.6 µg/mL (≈ 35 µM)

**Q.** Which solubility kinetic does the source give for Oc1ccc(Br)cc1CNc1ccccn1 here?
**A.** 3.4 µg/mL (≈ 12.2 µM)

**Q.** For CN(C)C(=O)c1cc(C(=O)Cc2ccccc2)c[nH]1, which solubility kinetic is on record?
**A.** 37.7 µg/mL (≈ 147 µM)

**Q.** Which solubility kinetic does the source give for CCC(C)NC(=O)c1ccc(-n2c(=S)[nH]c3ccccc3c2=O)cc1 (stereo not given) here?
**A.** 3.7 µg/mL (≈ 10.5 µM)

**Q.** With CC(=O)N(CCCN(C)C)Cc1ccccn1 as the compound, how does the solubility kinetic read?
**A.** 30 µg/mL (≈ 127 µM)

**Q.** Which solubility kinetic does the source give for COc1ccc([N+](=O)[O-])cc1NC(=O)COC(=O)Cn1cnc2ccccc2c1=O here?
**A.** > 61.9 µg/mL

**Q.** With O=S(=O)(c1ccc(Cl)cc1)N1CCN(c2ncccn2)CC1 as the compound, how does the solubility kinetic read?
**A.** 0.9 µg/mL (≈ 2.66 µM)

**Q.** For O=C(CSc1ccc(Br)cc1)NC1CCCCCC1, which solubility kinetic is on record?
**A.** 3.4 µg/mL (≈ 9.93 µM)

**Q.** Which solubility kinetic does the source give for O=C(Nc1ccc2nc3n(c(=O)c2c1)CCCC3)c1ccccc1F here?
**A.** 48 µg/mL (≈ 142 µM)

**Q.** Which solubility kinetic does the source give for CSc1cc(CS(=O)(=O)c2ccccc2)nc(-c2ccccc2)n1 here?
**A.** < 0.4 µg/mL

**Q.** Which solubility kinetic does the source give for O=C(Nc1ccccc1)Nc1ccc(Oc2cccnc2)nc1 here?
**A.** 20.5 µg/mL (≈ 66.9 µM)

**Q.** For COc1ccc(CNC(=O)CNC(=O)c2ccc(Br)o2)cc1OC, which solubility kinetic is on record?
**A.** 53.1 µg/mL (≈ 134 µM)

**Q.** Which solubility kinetic does the source give for CC(=O)c1cc(C)ccc1OC(=O)CN1C(=O)c2ccccc2C1=O here?
**A.** 24.6 µg/mL (≈ 72.9 µM)

**Q.** With CN=C(C)/C(C(=O)OC)=C(/O)c1c(F)cccc1F as the compound, how does the solubility kinetic read?
**A.** 25.9 µg/mL (≈ 96.2 µM)

**Q.** Which solubility kinetic does the source give for COc1nc(N)nc(NC(=O)c2cccs2)c1N=O here?
**A.** 25.2 µg/mL (≈ 90.2 µM)

**Q.** For COc1ccc(-c2nc3ccccc3nc2-c2ccccc2)cc1OC, which solubility kinetic is on record?
**A.** 11 µg/mL (≈ 32.1 µM)

**Q.** With CC(C)(C)C(=O)OCc1nc(-c2ccc(O)c(O)c2)cs1 as the compound, how does the solubility kinetic read?
**A.** 39.5 µg/mL (≈ 129 µM)

**Q.** For COc1ccc(C(=O)N2CCN(c3ccccc3OC)CC2)cc1, which solubility kinetic is on record?
**A.** > 49 µg/mL

**Q.** For O=C(Cc1ccc(Br)cc1)NCCc1ccccc1, which solubility kinetic is on record?
**A.** 7.5 µg/mL (≈ 23.6 µM)

**Q.** With COc1ccc2oc(C(=O)OCC(=O)Nc3ccc(C(=O)N(C)C)cc3)c(C)c2c1 as the compound, how does the solubility kinetic read?
**A.** 58.7 µg/mL (≈ 143 µM)

**Q.** With CC1CC(C)CN(S(=O)(=O)c2ccc(Cl)cc2)C1 (stereo not given) as the compound, how does the solubility kinetic read?
**A.** 9.3 µg/mL (≈ 32.3 µM)

**Q.** For Cc1cc(C)c(NC(N)=S)c(C)c1, which solubility kinetic is on record?
**A.** > 29.1 µg/mL

**Q.** For S=C(Nc1ccc(Cl)cc1Cl)N1CCN(c2ccccn2)CC1, which solubility kinetic is on record?
**A.** 1 µg/mL (≈ 2.72 µM)

**Q.** With Cc1cc(C(=O)N2C(C)CCCC2C)no1 (stereo not given) as the compound, how does the solubility kinetic read?
**A.** > 33.3 µg/mL

**Q.** With CN(c1cccc2cccnc12)S(=O)(=O)c1ccccc1 as the compound, how does the solubility kinetic read?
**A.** 40.7 µg/mL (≈ 136 µM)

**Q.** For O=C(CN1CCCCCC1)Nc1ccc(S(=O)(=O)N2CCCCC2)cc1, which solubility kinetic is on record?
**A.** 50.4 µg/mL (≈ 133 µM)

**Q.** With NC(=O)C1CCN(CCC(=O)Nc2ccc(F)c(F)c2)CC1 as the compound, how does the solubility kinetic read?
**A.** > 46.7 µg/mL

**Q.** For O=C(CN1CCN(c2ccccn2)CC1)Nc1cccc(F)c1, which solubility kinetic is on record?
**A.** 19.9 µg/mL (≈ 63.3 µM)

**Q.** Which solubility kinetic does the source give for Nc1nc2ccc(NC(=O)c3ccco3)cc2s1 here?
**A.** > 38.9 µg/mL

**Q.** Which solubility kinetic does the source give for CN(C)C(=O)c1cc(C(=O)c2ccccc2)c[nH]1 here?
**A.** > 36.3 µg/mL

**Q.** With O=C1CC(=O)N(c2cccc(F)c2)C(=O)N1 as the compound, how does the solubility kinetic read?
**A.** > 33.3 µg/mL

**Q.** Which solubility kinetic does the source give for CCn1cc(S(=O)(=O)Nc2ccc(Cl)cc2F)cn1 here?
**A.** > 45.6 µg/mL

**Q.** For CC(=O)Oc1ccc(C(c2ccc(OC(C)=O)cc2)c2ccccn2)cc1, which solubility kinetic is on record?
**A.** > 54.2 µg/mL

**Q.** For N#Cc1ccc(C(=O)N(Cc2ccccc2)c2ccccc2)cc1, which solubility kinetic is on record?
**A.** 26.4 µg/mL (≈ 84.5 µM)

**Q.** With COc1ccc(CCNCCN2CCOCC2)cc1.Cl as the compound, how does the solubility kinetic read?
**A.** 24.9 µg/mL

**Q.** Which solubility kinetic does the source give for Fc1ccccc1N1CCN(c2ncnc3nc[nH]c23)CC1 here?
**A.** 1.3 µg/mL (≈ 4.36 µM)

**Q.** For O=C(NCCc1ccccc1)C1CC1, which solubility kinetic is on record?
**A.** > 28.4 µg/mL

**Q.** With NC(=O)c1cc(S(=O)(=O)NCc2ccc(F)cc2)cs1 as the compound, how does the solubility kinetic read?
**A.** 47 µg/mL (≈ 150 µM)

**Q.** For CCN(CC)CC(=O)Nc1sc(C)c(C)c1C(=O)c1ccc(C)cc1, which solubility kinetic is on record?
**A.** 4.6 µg/mL (≈ 12.8 µM)

**Q.** With COc1ccc(-c2nc(C=O)cs2)cc1 as the compound, how does the solubility kinetic read?
**A.** 26.2 µg/mL (≈ 119 µM)

**Q.** Which solubility kinetic does the source give for Cn1c(N)c(C(=O)COC(=O)C2CCCC2)c(=O)n(C)c1=O here?
**A.** > 46.4 µg/mL

**Q.** Which solubility kinetic does the source give for CC(NC(=O)/C(C#N)=C/c1cccs1)c1ccccc1 (stereo not given) here?
**A.** 3.6 µg/mL (≈ 12.7 µM)

**Q.** For CCc1ccccc1NC(=O)CNC(=O)c1ccc(OCc2cn3ccccc3n2)cc1, which solubility kinetic is on record?
**A.** 7.6 µg/mL (≈ 17.7 µM)

**Q.** For O=C(Nc1cccc2c1C(=O)NC2=O)c1ccccc1[N+](=O)[O-], which solubility kinetic is on record?
**A.** 6.9 µg/mL (≈ 22.2 µM)

**Q.** With COc1ccc(NC(=O)Cc2ccc(Cl)cc2Cl)cn1 as the compound, how does the solubility kinetic read?
**A.** 33.8 µg/mL (≈ 109 µM)

**Q.** For Cl.O[C@@H]1CCCC[C@H]1N1CCC(c2ccccc2)CC1, which solubility kinetic is on record?
**A.** > 44.4 µg/mL

**Q.** With O=C(Cn1cc([N+](=O)[O-])ccc1=O)NCc1ccc(Cl)cc1Cl as the compound, how does the solubility kinetic read?
**A.** 1.9 µg/mL (≈ 5.33 µM)

**Q.** For COc1ccccc1CN(C)C(=O)c1cc2ccccc2o1, which solubility kinetic is on record?
**A.** 28.7 µg/mL (≈ 97.2 µM)

**Q.** Which solubility kinetic does the source give for CN(C)S(=O)(=O)c1cc(NC(=O)COC(=O)CC2Sc3ccccc3NC2=O)ccc1Cl (stereo not given) here?
**A.** 12.2 µg/mL (≈ 24.5 µM)

**Q.** Which solubility kinetic does the source give for O=S(=O)(Cc1ccc(Cl)cc1)N1CCCCCC1 here?
**A.** 4.5 µg/mL (≈ 15.6 µM)

**Q.** Which solubility kinetic does the source give for CC(=O)OCC(=O)Nc1ccc(Br)c(C)c1 here?
**A.** > 42.9 µg/mL

**Q.** With c1ccc(-c2cn(-c3ccccc3)c3ncnc(N4CCCCC4)c23)cc1 as the compound, how does the solubility kinetic read?
**A.** < 0.2 µg/mL

**Q.** For CN(C)c1ccc(Nc2ccc([N+](=O)[O-])cn2)cc1, which solubility kinetic is on record?
**A.** 1 µg/mL (≈ 3.87 µM)

**Q.** With Cc1cccc(C(=O)N2CCC(c3nc4ccccc4s3)CC2)c1 as the compound, how does the solubility kinetic read?
**A.** > 50.5 µg/mL

**Q.** For COc1ccc(CCNC(=O)C2C3CCC(C3)C2C(=O)O)cc1OC (stereo not given), which solubility kinetic is on record?
**A.** 43.7 µg/mL (≈ 126 µM)
